What was measured:
Type in all cases: in vivo
[1] = test system: barnyardgrass (Echinochloa crus-galli, ECHCG); experiment: Greenhouse herbicide screen, post-emerge application, phytotoxicity rating; conditions: POST emergent, 14 days after application, scale 0-100
Summary of the method: (§1)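 Visual phytotoxicity scored 0–100 at 14 days, where 0 means no damage and 100 all plants dead. Compounds had been applied in acetone by track sprayer at 15–1000 g ai/ha in 187 l/ha.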

[2] = test system: cocklebur (Xanthium strumarium, XANST); experiment: as above; conditions: POST emergent, 14 days after application, scale 0-100
Summary of the method: as §1

[3] = test system: common ragweed (Ambrosia artemisiifolia L., AMBEL); experiment: as above; conditions: POST emergent, 14 days after application, scale 0-100
Summary of the method: as §1

[4] = test system: green foxtail (Setaria viridis, SETVI); experiment: as above; conditions: POST emergent, 14 days after application, scale 0-100
Summary of the method: as §1

[5] = test system: ivyleaf morningglory (Ipomoea hederacea, IPOHE); experiment: as above; conditions: POST emergent, 14 days after application, scale 0-100
Summary of the method: as §1

[6] = test system: johnsongrass (Sorghum halepense, SORHA); experiment: as above; conditions: POST emergent, 14 days after application, scale 0-100
Summary of the method: as §1

[7] = test system: lambsquarters (Chenopodium album, CHEAL); experiment: as above; conditions: POST emergent, 14 days after application, scale 0-100
Summary of the method: as §1

[8] = test system: large crabgrass (Digitaria sanguinalis, DIGSA); experiment: as above; conditions: POST emergent, 14 days after application, scale 0-100
Summary of the method: as §1

[9] = test system: redroot pigweed (Amaranthus retrofiexus, AMARE); experiment: as above; conditions: POST emergent, 14 days after application
Summary of the method: as §1

[10] = test system: sicklepod (Cassia obtusifolia, CASOB); experiment: as above; conditions: POST emergent, 14 days after application, scale 0-100
Summary of the method: as §1

[11] = test system: velvetleaf (Abutilon theophrasti, ABUTH); experiment: as above; conditions: POST emergent, 14 days after application, scale 0-100
Summary of the method: as §1

[12] = test system: field corn (Zea mays L., var. Dekalb 535, CORN); experiment: Greenhouse herbicide screen, post-emerge application, crop damage rating; conditions: POST emergent, 14 days after application, scale 0-100
Summary of the method: as §1

[13] = test system: soybean (Glycine max L., var. Pella 86, SOY); experiment: as above; conditions: POST emergent, 14 days after application, scale 0-100
Summary of the method: as §1

[14] = test system: upland rice (Oryza sp., var.Cocodrie, RICE); experiment: as above; conditions: POST emergent, 14 days after application, scale 0-100
Summary of the method: as §1

[15] = test system: wheat (Triticum aestivum L.); experiment: as above; conditions: POST emergent, 14 days after application, scale 0-100
Summary of the method: as §1

[16] = test system: barnyardgrass (Echinochloa crus-galli, ECHCG); experiment: Greenhouse herbicide screen, pre-emerge application, phytotoxicity rating; conditions: PRE emergent, 14 days after application, rating scale 0-100
Summary of the method: as §1

[17] = test system: cocklebur (Xanthium strumarium, XANST); experiment: as above; conditions: PRE emergent, 14 days after application, rating scale 0-100
Summary of the method: as §1

[18] = test system: common ragweed (Ambrosia artemisiifolia L., AMBEL); experiment: as above; conditions: PRE emergent, 14 days after application, rating scale 0-100
Summary of the method: as §1

[19] = test system: green foxtail (Setaria viridis, SETVI); experiment: as above; conditions: PRE emergent, 14 days after application, rating scale 0-100
Summary of the method: as §1

[20] = test system: ivyleaf morningglory (Ipomoea hederacea, IPOHE); experiment: as above; conditions: PRE emergent, 14 days after application, rating scale 0-100
Summary of the method: as §1

[21] = test system: johnsongrass (Sorghum halepense, SORHA); experiment: as above; conditions: PRE emergent, 14 days after application, rating scale 0-100
Summary of the method: as §1

[22] = test system: lambsquarters (Chenopodium album, CHEAL); experiment: as above; conditions: PRE emergent, 14 days after application, rating scale 0-100
Summary of the method: as §1

[23] = test system: large crabgrass (Digitaria sanguinalis, DIGSA); experiment: as above; conditions: PRE emergent, 14 days after application, rating scale 0-100
Summary of the method: as §1

[24] = test system: redroot pigweed (Amaranthus retrofiexus, AMARE); experiment: as above; conditions: PRE emergent, 14 days after application, rating scale 0-100
Summary of the method: as §1

[25] = test system: sicklepod (Cassia obtusifolia, CASOB); experiment: as above; conditions: PRE emergent, 14 days after application, rating scale 0-100
Summary of the method: as §1

[26] = test system: velvetleaf (Abutilon theophrasti, ABUTH); experiment: as above; conditions: PRE emergent, 14 days after application, rating scale 0-100
Summary of the method: as §1

[27] = test system: field corn (Zea mays L., var. Dekalb 535, CORN); experiment: Greenhouse herbicide screen, pre-emerge application, crop damage rating; conditions: PRE emergent, 14 days after application, rating scale 0-100
Summary of the method: as §1

[28] = test system: soybean (Glycine max L., var. Pella 86, SOY); experiment: as above; conditions: PRE emergent, 14 days after application, rating scale 0-100
Summary of the method: as §1

[29] = test system: upland rice (Oryza sp., var.Cocodrie, RICE); experiment: as above; conditions: PRE emergent, 14 days after application, rating scale 0-100
Summary of the method: as §1

[30] = test system: wheat (Triticum aestivum L.); experiment: as above; conditions: PRE emergent, 14 days after application, rating scale 0-100
Summary of the method: as §1

Cn1c(C(F)(F)F)cc(=O)n(-c2cc(C(=O)NNC(=O)OC(C)(C)C)c(Cl)cc2F)c1=O [Compound 1-24, 2-chloro-5-(3,6-dihydro-3-methyl-2,6-dioxo-4-(trifluoromethyl)-1(2H)-pyrimidinyl)-4-fluoro-benzoic Acid, 2-(1,1-dimethylethyloxy)carbonyl Hydrazide]
phytotoxicity rating ECHCO ([1]; 63 g ai/ha): 35
phytotoxicity rating ECHCO ([1]; 250 g ai/ha): 50
phytotoxicity rating XANST ([2]; 63 g ai/ha): 100
phytotoxicity rating XANST ([2]; 250 g ai/ha): 100
phytotoxicity rating AMBEL ([3]; 63 g ai/ha): 100
phytotoxicity rating AMBEL ([3]; 250 g ai/ha): 100
phytotoxicity rating SETVI ([4]; 63 g ai/ha): 35
phytotoxicity rating SETVI ([4]; 250 g ai/ha): 60
phytotoxicity rating IPOHE ([5]; 63 g ai/ha): 100
phytotoxicity rating IPOHE ([5]; 250 g ai/ha): 100
phytotoxicity rating SORHA ([6]; 63 g ai/ha): 35
phytotoxicity rating SORHA ([6]; 250 g ai/ha): 55
phytotoxicity rating CHEAL ([7]; 63 g ai/ha): 100
phytotoxicity rating CHEAL ([7]; 250 g ai/ha): 100
phytotoxicity rating DIGSA ([8]; 63 g ai/ha): 20
phytotoxicity rating DIGSA ([8]; 250 g ai/ha): 35
phytotoxicity rating AMARE ([9]; 63 g ai/ha, scale 0-100 (0 no damage, 100 complete death)): 100
phytotoxicity rating AMARE ([9]; 250 g ai/ha, scale 0-100): 100
phytotoxicity rating CASOB ([10]; 63 g ai/ha): 75
phytotoxicity rating CASOB ([10]; 250 g ai/ha): 95
phytotoxicity rating ABUTH ([11]; 63 g ai/ha): 100
phytotoxicity rating ABUTH ([11]; 250 g ai/ha): 100
crop damage rating CORN ([12]; 63 g ai/ha): 90
crop damage rating CORN ([12]; 250 g ai/ha): 95
crop damage rating SOY ([13]; 63 g ai/ha): 8
crop damage rating SOY ([13]; 250 g ai/ha): 15
crop damage rating RICE ([14]; 63 g ai/ha): 60
crop damage rating RICE ([14]; 250 g ai/ha): 65
crop damage rating WHEAT ([15]; 63 g ai/ha): 15
crop damage rating WHEAT ([15]; 250 g ai/ha): 60
phytotoxicity rating ECHCG ([16]; 63 g ai/ha): 0
phytotoxicity rating ECHCG ([16]; 250 g ai/ha): 50
phytotoxicity rating XANST ([17]; 63 g ai/ha): 50
phytotoxicity rating XANST ([17]; 250 g ai/ha): 90
phytotoxicity rating AMBEL ([18]; 63 g ai/ha): 50
phytotoxicity rating AMBEL ([18]; 250 g ai/ha): 75
phytotoxicity rating SETVI ([19]; 63 g ai/ha): 10
phytotoxicity rating SETVI ([19]; 250 g ai/ha): 45
phytotoxicity rating IPOHE ([20]; 63 g ai/ha): 100
phytotoxicity rating IPOHE ([20]; 250 g ai/ha): 100
phytotoxicity rating SORHA ([21]; 63 g ai/ha): 0
phytotoxicity rating SORHA ([21]; 250 g ai/ha): 40
phytotoxicity rating CHEAL ([22]; 63 g ai/ha): 100
phytotoxicity rating CHEAL ([22]; 250 g ai/ha): 100
phytotoxicity rating DIGSA ([23]; 63 g ai/ha): 0
phytotoxicity rating DIGSA ([23]; 250 g ai/ha): 40
phytotoxicity rating AMARE ([24]; 63 g ai/ha): 80
phytotoxicity rating AMARE ([24]; 250 g ai/ha): 99
phytotoxicity rating CASOB ([25]; 63 g ai/ha): 50
phytotoxicity rating CASOB ([25]; 250 g ai/ha): 95
phytotoxicity rating ABUTH ([26]; 63 g ai/ha): 98
phytotoxicity rating ABUTH ([26]; 250 g ai/ha): 99
crop damage rating CORN ([27]; 63 g ai/ha): 0
crop damage rating CORN ([27]; 250 g ai/ha): 100
crop damage rating SOY ([28]; 63 g ai/ha): 50
crop damage rating SOY ([28]; 250 g ai/ha): 100
crop damage rating RICE ([29]; 63 g ai/ha): 5
crop damage rating RICE ([29]; 250 g ai/ha): 30
crop damage rating WHEAT ([30]; 63 g ai/ha): 20
crop damage rating WHEAT ([30]; 250 g ai/ha): 60

Source: patent US6770597B2, “Benzohydrazide derivatives as herbicides and desiccant compositions containing them” (Ishihara Sangyo Kaisha, Ltd., priority 2002, dated 2004)
